≈ marks a conversion by molar mass, not a printed value.
Columns and labels:
[1] = tested on: Cryptococcus neoformans; test: Concentration that substantially inhibit the growth of Cryptococcus neoformans; assay type: functional
[2] = tested on: Candida albicans; test: Concentration that substantially inhibit growth of Candida albicans; assay type: functional, organism-based

## CC[C@H](C)[C@H](NC(=O)[C@@H](Cc1ccccc1)NC(=O)[C@@H](Cc1c[nH]c2ccccc12)NC(=O)[C@@H](N)CCCN=C(N)N)C(=O)N[C@H](Cc1ccccc1)C(=O)N[C@@H](Cc1c[nH]cn1)C(=O)N[C@@H](CCCCN)C(=O)N[C@@H](CCCN=C(N)N)C(=O)N[C@@H](CC(C)C)C(N)=O
[1]
  MIC: 2.39 µM (≈ 3.11 µg/mL)
[2]
  IC50: 4.37 µM

## CC[C@H](C)[C@H](NC(=O)[C@@H](Cc1ccccc1)NC(=O)[C@@H](Cc1c[nH]c2ccccc12)NC(=O)[C@@H](N)CCCN=C(N)N)C(=O)N[C@H](Cc1ccccc1)C(=O)N[C@@H](Cc1c[nH]cn1)C(=O)N[C@@H](CCCCN)C(=O)N[C@@H](CCCN=C(N)N)C(=O)N[C@@H](C)C(N)=O
[1]
  MIC: 4.96 µM (≈ 6.25 µg/mL)
[2]
  IC50: 5.99 µM

## CC[C@H](C)[C@H](NC(=O)[C@@H](Cc1ccccc1)NC(=O)[C@@H](Cc1c[nH]c2ccccc12)NC(=O)[C@@H](N)CCCN=C(N)N)C(=O)N[C@H](Cc1ccccc1)C(=O)N[C@@H](Cc1c[nH]cn1)C(=O)N[C@@H](CCCCN)C(=O)N[C@@H](CCCCN)C(=O)N[C@@H](CC(C)C)C(N)=O
[1]
  MIC: 2.4 µM (≈ 3.06 µg/mL)
[2]
  IC50: 2.18 µM

## CC[C@H](C)[C@H](NC(=O)[C@@H](Cc1ccccc1)NC(=O)[C@@H](Cc1c[nH]c2ccccc12)NC(=O)[C@@H](N)CCCN=C(N)N)C(=O)N[C@H](Cc1ccccc1)C(=O)N[C@@H](Cc1c[nH]cn1)C(=O)N[C@@H](CCCCN)C(=O)N[C@@H](CCCN=C(N)N)C(=O)N[C@H](C(N)=O)[C@@H](C)O
[1]
  MIC: 4.84 µM (≈ 6.24 µg/mL)
[2]
  IC50: 5.97 µM

## CC[C@H](C)[C@H](NC(=O)[C@@H](Cc1ccccc1)NC(=O)[C@@H](Cc1c[nH]c2ccccc12)NC(=O)[C@@H](N)CCCN=C(N)N)C(=O)N[C@H](Cc1ccccc1)C(=O)N[C@@H](Cc1c[nH]cn1)C(=O)N[C@@H](CCCCN)C(=O)N[C@@H](CCCCN)C(=O)N[C@@H](CCC(N)=O)C(N)=O
[1]
  MIC: 2.37 µM (≈ 3.05 µg/mL)
[2]
  IC50: 2.58 µM

## CC[C@H](C)[C@H](NC(=O)[C@@H](Cc1ccccc1)NC(=O)[C@@H](Cc1c[nH]c2ccccc12)NC(=O)[C@@H](N)CCCN=C(N)N)C(=O)N[C@H](Cc1ccccc1)C(=O)N[C@@H](Cc1c[nH]cn1)C(=O)N[C@@H](CCCCN)C(=O)N[C@@H](CCCN=C(N)N)C(=O)N[C@@H](Cc1c[nH]c2ccccc12)C(N)=O
[1]
  MIC: 4.54 µM (≈ 6.24 µg/mL)
[2]
  IC50: 6.35 µM

## CC[C@H](C)[C@H](NC(=O)[C@@H](Cc1ccccc1)NC(=O)[C@@H](Cc1c[nH]c2ccccc12)NC(=O)[C@@H](N)CCCN=C(N)N)C(=O)N[C@H](Cc1ccccc1)C(=O)N[C@@H](Cc1c[nH]cn1)C(=O)N[C@@H](CCCCN)C(=O)N[C@@H](CCCCN)C(=O)N[C@@H](Cc1c[nH]c2ccccc12)C(N)=O
[1]
  MIC: 1.14 µM (≈ 1.54 µg/mL)
[2]
  IC50: 2.61 µM

## CC[C@H](C)[C@H](NC(=O)[C@@H](Cc1ccccc1)NC(=O)[C@@H](Cc1c[nH]c2ccccc12)NC(=O)[C@@H](N)CCCN=C(N)N)C(=O)N[C@H](Cc1ccccc1)C(=O)N[C@@H](Cc1c[nH]cn1)C(=O)N[C@@H](CCCCN)C(=O)N[C@@H](CCCCN)C(=O)N[C@H](C(N)=O)[C@@H](C)O
[1]
  MIC: 2.44 µM (≈ 3.08 µg/mL)
[2]
  IC50: 2.38 µM

## CC[C@H](C)[C@H](NC(=O)[C@@H](Cc1ccccc1)NC(=O)[C@@H](Cc1c[nH]c2ccccc12)NC(=O)[C@@H](N)CCCN=C(N)N)C(=O)N[C@H](Cc1ccccc1)C(=O)N[C@@H](Cc1c[nH]cn1)C(=O)N[C@@H](CCCCN)C(=O)N[C@@H](CCCN=C(N)N)C(=O)N[C@@H](CC(N)=O)C(N)=O
[1]
  MIC: 2.39 µM (≈ 3.11 µg/mL)
[2]
  IC50: 4.64 µM

## CC[C@H](C)[C@H](NC(=O)[C@@H](Cc1ccccc1)NC(=O)[C@@H](Cc1c[nH]c2ccccc12)NC(=O)[C@@H](N)CCCN=C(N)N)C(=O)N[C@H](Cc1ccccc1)C(=O)N[C@@H](Cc1c[nH]cn1)C(=O)N[C@@H](CCCCN)C(=O)N[C@@H](CCCCN)C(=O)N[C@@H](CCCCN)C(N)=O
[1]
  MIC: 2.37 µM (≈ 3.05 µg/mL)
[2]
  IC50: 1.83 µM

## CC[C@H](C)[C@H](NC(=O)[C@@H](Cc1ccccc1)NC(=O)[C@@H](Cc1c[nH]c2ccccc12)NC(=O)[C@@H](N)CCCN=C(N)N)C(=O)N[C@H](Cc1ccccc1)C(=O)N[C@@H](Cc1c[nH]cn1)C(=O)N[C@@H](CCCCN)C(=O)N[C@@H](CCCCN)C(=O)N[C@@H](Cc1ccc(O)cc1)C(N)=O
[1]
  MIC: 1.16 µM (≈ 1.54 µg/mL)
[2]
  IC50: 2.74 µM

## CC[C@H](C)[C@H](NC(=O)[C@@H](Cc1ccccc1)NC(=O)[C@@H](Cc1c[nH]c2ccccc12)NC(=O)[C@@H](N)CCCN=C(N)N)C(=O)N[C@H](Cc1ccccc1)C(=O)N[C@@H](Cc1c[nH]cn1)C(=O)N[C@@H](CCCCN)C(=O)N[C@@H](CCCN=C(N)N)C(=O)N[C@@H](Cc1ccccc1)C(N)=O
[1]
  MIC: 4.67 µM (≈ 6.24 µg/mL)
[2]
  IC50: 5.5 µM

## CC[C@H](C)[C@H](NC(=O)[C@@H](Cc1ccccc1)NC(=O)[C@@H](Cc1c[nH]c2ccccc12)NC(=O)[C@@H](N)CCCN=C(N)N)C(=O)N[C@H](Cc1ccccc1)C(=O)N[C@@H](Cc1c[nH]cn1)C(=O)N[C@@H](CCCCN)C(=O)N[C@@H](CCCN=C(N)N)C(=O)N1CCC[C@H]1C(N)=O
[1]
  MIC: 2.42 µM (≈ 3.11 µg/mL)
[2]
  IC50: 4.7 µM

## CC[C@H](C)[C@H](NC(=O)[C@@H](Cc1ccccc1)NC(=O)[C@@H](Cc1c[nH]c2ccccc12)NC(=O)[C@@H](N)CCCN=C(N)N)C(=O)N[C@H](Cc1ccccc1)C(=O)N[C@@H](Cc1c[nH]cn1)C(=O)N[C@@H](CCCCN)C(=O)N[C@@H](CCCN=C(N)N)C(=O)N[C@@H](CCC(N)=O)C(N)=O
[1]
  MIC: 4.74 µM (≈ 6.24 µg/mL)
[2]
  IC50: 3.92 µM

## CC[C@H](C)[C@H](NC(=O)[C@@H](Cc1ccccc1)NC(=O)[C@@H](Cc1c[nH]c2ccccc12)NC(=O)[C@@H](N)CCCN=C(N)N)C(=O)N[C@H](Cc1ccccc1)C(=O)N[C@@H](Cc1c[nH]cn1)C(=O)N[C@@H](CCCCN)C(=O)N[C@@H](CCCN=C(N)N)C(=O)N[C@@H](CO)C(N)=O
[1]
  MIC: 4.89 µM (≈ 6.24 µg/mL)
[2]
  IC50: 4.38 µM

## CC[C@H](C)[C@H](NC(=O)[C@@H](Cc1ccccc1)NC(=O)[C@@H](Cc1c[nH]c2ccccc12)NC(=O)[C@@H](N)CCCN=C(N)N)C(=O)N[C@H](Cc1ccccc1)C(=O)N[C@@H](Cc1c[nH]cn1)C(=O)N[C@@H](CCCCN)C(=O)N[C@@H](CCCN=C(N)N)C(=O)N[C@@H](CCCCN)C(N)=O
[1]
  MIC: 2.36 µM (≈ 3.11 µg/mL)
[2]
  IC50: 3.34 µM

## CC[C@H](C)[C@H](NC(=O)[C@@H](Cc1ccccc1)NC(=O)[C@@H](Cc1c[nH]c2ccccc12)NC(=O)[C@@H](N)CCCN=C(N)N)C(=O)N[C@H](Cc1ccccc1)C(=O)N[C@@H](Cc1c[nH]cn1)C(=O)N[C@@H](CCCCN)C(=O)N[C@@H](CCCCN)C(=O)N[C@@H](CCSC)C(N)=O
[1]
  MIC: 2.37 µM (≈ 3.06 µg/mL)
[2]
  IC50: 2.62 µM
